The record followed here is patent US20250051363A1, “Substituted Pyrazolopyridines” (Neuro3 Therapeutics, Inc., priority 2023, published 2025).

Counter-ions that a name gives are not always drawn.

This experiment has as its target LRRK2 wild-type (Homo sapiens (Human), UniProt Q5S007). The experiment in a line: LanthaScreen LRRK2 Biochemical Activity Assay. Particulars: human recombinant LRRK2 (amino acids 970-2527) wild-type, ATP 57 μM, TR-FRET; read-out: IC50 (nM), inhibition of LRRK2 wild-type kinase activity. As for the experimental part:
The ability of a compound of Formula (I) to inhibit LRRK2 kinase activity is measured using a LanthaScreen™ kinase activity assay. In general, in a LanthaScreen™ kinase activity assay, kinase, fluorescein-labeled substrate, and ATP are allowed to react. Then EDTA (to stop the reaction) and terbium-labeled antibody (to detect phosphorylated product) are added. In a LanthaScreen™ kinase reaction, the antibody associates with the phosphorylated fluorescein labeled substrate resulting in an increased TR-FRET value. The TR-FRET value is a dimensionless number that is calculated as the ratio of the acceptor (fluorescein) signal to the donor (terbium) signal. The amount of antibody that is bound to the tracer is directly proportional to the amount of phosphorylated substrate present, and in this manner, kinase activity can be detected and measured by an increase in the TR-FRET value. Accordingly, in this Example, enzyme reactions are carried out in a kinase reaction buffer in the presence or absence of representative compounds of Formula (I) at various concentrations in 384-well plate at room temperature for 60 minutes. The kinase reaction buffer contains human recombinant LRRK2 protein (amino acids 970-2527, 5 nM), ATP (57 μM for LRRK2 wild-type, 134 μM for G2019S mutant protein), Fluorescein-LRRKtide substrate (0.4 mM), 50 mM Tris pH 7.5, 10 mM MgCl2, 1 mM EGTA, 0.01% Brij™-35, and 2 mM DTT. The final reaction volume for each reaction is 10 μL. The reactions are initated by adding the substrate and stopped by the addition of 10 μL of a TR-FRET dilution buffer supplemented with a kinase quench buffer (10 mM EDTA final) and Tb-anti-pLRRKtide (2 nM final). The plate is further incubated at room temperature for another 60 minutes, and the fluorescent signals are read on an EnVision® multilabel plate reader (PerkinElmer, Waltham, MA) with excitation at 340 nm and emission at 495 and 520 nm. The assay signal is determined as a ratio of FRET-specific signal measured with emission filter at 520 nm to that of the signal measured with Tb-specific emission filter at 495 nm. IC50 values for compound-mediated enzyme inhibition are calculated using appropriate programs in GraphPad Prism software by plotting the logarithm of the compound concentrations versus percent inhibition. All reagents are purchased from Thermo Fisher Scientific.
(In general: In TR-FRET formats the signal depends on donor and acceptor labels being close together.)

LRRK2 wild-type, sequence (Q5S007 970-2527): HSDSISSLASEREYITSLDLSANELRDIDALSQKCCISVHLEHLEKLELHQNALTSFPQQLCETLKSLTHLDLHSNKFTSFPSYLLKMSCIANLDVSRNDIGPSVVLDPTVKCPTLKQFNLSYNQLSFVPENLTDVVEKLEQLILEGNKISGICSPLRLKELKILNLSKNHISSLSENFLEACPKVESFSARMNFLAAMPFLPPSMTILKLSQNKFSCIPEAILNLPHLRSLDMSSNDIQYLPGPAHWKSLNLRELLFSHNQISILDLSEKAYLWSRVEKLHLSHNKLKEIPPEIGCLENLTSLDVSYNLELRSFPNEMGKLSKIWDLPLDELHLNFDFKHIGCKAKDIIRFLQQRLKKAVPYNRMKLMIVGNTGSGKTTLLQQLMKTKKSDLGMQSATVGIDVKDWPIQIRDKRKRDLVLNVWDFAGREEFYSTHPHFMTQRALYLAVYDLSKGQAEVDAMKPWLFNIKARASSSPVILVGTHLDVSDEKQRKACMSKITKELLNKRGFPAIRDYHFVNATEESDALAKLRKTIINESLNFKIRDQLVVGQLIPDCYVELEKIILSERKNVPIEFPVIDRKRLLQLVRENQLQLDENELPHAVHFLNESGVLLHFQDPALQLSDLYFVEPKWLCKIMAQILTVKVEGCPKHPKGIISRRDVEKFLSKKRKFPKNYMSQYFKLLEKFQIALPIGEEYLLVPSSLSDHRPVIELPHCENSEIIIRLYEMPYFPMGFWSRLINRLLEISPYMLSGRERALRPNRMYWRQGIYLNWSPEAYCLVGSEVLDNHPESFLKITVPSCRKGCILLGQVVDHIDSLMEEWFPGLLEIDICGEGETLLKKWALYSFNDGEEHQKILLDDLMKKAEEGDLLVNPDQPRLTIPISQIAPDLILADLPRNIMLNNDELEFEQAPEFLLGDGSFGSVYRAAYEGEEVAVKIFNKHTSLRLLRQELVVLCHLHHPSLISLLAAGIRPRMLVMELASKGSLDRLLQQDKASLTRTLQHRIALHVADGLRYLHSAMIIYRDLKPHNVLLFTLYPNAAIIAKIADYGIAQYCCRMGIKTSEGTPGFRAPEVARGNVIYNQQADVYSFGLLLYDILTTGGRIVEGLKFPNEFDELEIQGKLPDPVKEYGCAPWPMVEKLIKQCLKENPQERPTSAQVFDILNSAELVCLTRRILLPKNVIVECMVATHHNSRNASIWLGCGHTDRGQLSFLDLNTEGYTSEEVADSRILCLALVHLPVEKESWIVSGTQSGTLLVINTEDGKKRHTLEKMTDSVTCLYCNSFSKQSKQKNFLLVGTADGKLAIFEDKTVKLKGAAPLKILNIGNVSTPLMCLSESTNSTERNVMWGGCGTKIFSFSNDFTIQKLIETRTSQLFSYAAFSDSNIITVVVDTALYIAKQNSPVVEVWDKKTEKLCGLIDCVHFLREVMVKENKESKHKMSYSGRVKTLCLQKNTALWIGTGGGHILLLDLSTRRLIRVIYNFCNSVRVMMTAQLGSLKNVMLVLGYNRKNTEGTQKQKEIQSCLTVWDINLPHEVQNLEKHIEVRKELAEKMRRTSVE

On to `Brc1ccn2ncc(-c3cccc(C4CCCNC4)n3)c2c1` (stereo not shown) [Example 8, 5-bromo-3-[6-(3-piperidyl)-2-pyridyl]pyrazolo[1,5-a]pyridine], for which the IC50 lay within 11 to 100 nM. For `C[C@@H]1CN(c2cc(F)cc(-c3cnn4ccccc34)n2)C[C@H](C)N1` [Example 52, 3-[6-[(3R,5S)-3,5-dimethylpiperazin-1-yl]-4-fluoro-2-pyridyl]pyrazolo[1,5-a]pyridine], the IC50 fell in the range of 11 to 100 nM. In the case of `Clc1ccn2ncc(-c3cccc(N4CCNCC4)n3)c2c1` [Example 42, 5-chloro-3-(6-piperazin-1-yl-2-pyridyl)pyrazolo[1,5-a]pyridine], the half-maximal inhibitory concentration (IC50) is 11 to 100 nM.

On to `Oc1ccn2ncc(-c3cccc(C4CCCNC4)n3)c2c1` (stereo not shown) [Example 12, 3-(6-(piperidin-3-yl)pyridin-2-yl)pyrazolo[1,5-a]pyridin-5-ol], for which the IC50 was in the range of 101 to 400 nM.

Turning to `c1cc(-c2cnn3ccccc23)nc(N2CC3CCC2CN3)c1` (stereo not shown) [Example 48, 3-[6-(2,5-diazabicyclo[2.2.2]octan-2-yl)-2-pyridyl]pyrazolo[1,5-a]pyridine], the 50% inhibitory concentration (IC50) lay within 101 to 400 nM. Take `FC(F)(F)c1ccn2ncc(-c3cc(Cl)cc(N4CCNCC4)n3)c2c1` [Example 41, 3-(4-chloro-6-piperazin-1-yl-2-pyridyl)-5-(trifluoromethyl) pyrazolo[1,5-a]pyridine]: the IC50 is 11 to 100 nM. Under `c1cc(-c2cnn3ccc(OCC4COC4)cc23)nc(C2CCCNC2)c1` (stereo not shown) [Example 15, 5-(oxetan-3-ylmethoxy)-3-[6-(3-piperidyl)-2-pyridyl]pyrazolo[1,5-a]pyridine] stands 101 to 400 nM. Under `CNc1ccn2ncc(-c3cccc(N4C[C@@H](C)N[C@@H](C)C4)n3)c2c1` [Example 53, 3-[6-[(3S,5R)-3,5-dimethylpiperazin-1-yl]-2-pyridyl]-N-methyl-pyrazolo[1,5-a]pyridin-5-amine] stands 11 to 100 nM; under `O=C(COc1ccccn1)Nc1ccn2ncc(-c3cccc(C4CCCNC4)n3)c2c1` (stereo not shown) [Example 73, N-(3-(6-(piperidin-3-yl)pyridin-2-yl)pyrazolo[1,5-a]pyridin-5-yl)-2-(pyridin-2-yloxy)acetamide], 11 to 100 nM; under `c1cc(-c2cnn3ccccc23)nc(N2CC3CC(C2)N3)c1` [Example 45, 3-[6-(3,6-Diazabicyclo[3.1.1]heptan-3-yl)-2-pyridyl]pyrazolo[1,5-a]pyridine], 101 to 400 nM. To `CS(=O)(=O)NCC(=O)Nc1ccn2ncc(-c3cccc(C4CCCNC4)n3)c2c1` (stereo not shown) [Example 68, 2-(methylsulfonamido)-N-(3-(6-(piperidin-3-yl)pyridin-2-yl)pyrazolo[1,5-a]pyridin-5-yl)acetamide] belongs 11 to 100 nM. `O=C(COc1ccncc1)Nc1ccn2ncc(-c3cccc(C4CCCNC4)n3)c2c1` (stereo not shown) [Example 76, N-(3-(6-(piperidin-3-yl)pyridin-2-yl)pyrazolo[1,5-a]pyridin-5-yl)-2-(pyridin-4-yloxy)acetamide]: the IC50 lay in the range of 11 to 100 nM. To `C[C@@H]1CN(c2cccc(-c3cnn4ccc(Cl)cc34)n2)C[C@H](C)N1C` [Example 71, 5-chloro-3-(6-((3S,5R)-3,4,5-trimethylpiperazin-1-yl)pyridin-2-yl)pyrazolo[1,5-a]pyridine] belongs 11 to 100 nM; to `Fc1cc(-c2cnn3ccccc23)nc(C2CCCNC2)c1` (stereo not shown) [Example 31, 3-[4-fluoro-6-(3-piperidyl)-2-pyridyl]pyrazolo[1,5-a]pyridine], 101 to 400 nM. Under `Fc1ccc(C2CCCNC2)nc1-c1cnn2ccccc12` (stereo not shown) [Example 32, 3-[3-fluoro-6-(3-piperidyl)-2-pyridyl]pyrazolo[1,5-a]pyridine] stands 11 to 100 nM. Under `O=C(CNc1cccnc1)Nc1ccn2ncc(-c3cccc(C4CCCNC4)n3)c2c1` (stereo not shown) [Example 80, N-(3-(6-(piperidin-3-yl)pyridin-2-yl)pyrazolo[1,5-a]pyridin-5-yl)-2-(pyridin-3-ylamino)acetamide] stands 11 to 100 nM; under `C[C@@H]1CN(c2ccc(Cl)c(-c3cnn4ccc(Cl)cc34)n2)C[C@H](C)N1` [Example 63, 5-chloro-3-[3-chloro-6-[(3S,5R)-3,5-dimethylpiperazin-1-yl]-2-pyridyl]pyrazolo[1,5-a]pyridine], at most 10 nM. Regarding `Clc1cc(-c2cnn3ccc(Cl)cc23)nc(N2CC3CC(C2)N3)c1` [Example 47, 5-chloro-3-[4-chloro-6-(3,6-diazabicyclo[3.1.1]heptan-3-yl)-2-pyridyl]pyrazolo[1,5-a]pyridine], the concentration for half-maximal inhibition (IC50) fell in the range of 101 to 400 nM.

As for `N#CCCCC(=O)Nc1ccn2ncc(-c3cccc(C4CCCNC4)n3)c2c1` (stereo not shown) [Example 75, 4-cyano-N-(3-(6-(piperidin-3-yl)pyridin-2-yl)pyrazolo[1,5-a]pyridin-5-yl)butanamide], the half-maximal inhibitory concentration (IC50) lay within 11 to 100 nM. In the case of `Clc1ccn2ncc(-c3cccc(N4CC5CC(C4)N5)n3)c2c1` [Example 46, 3-(6-(5-chloropyrazolo[1,5-a]pyridin-3-yl)pyridin-2-yl)-3,6-diazabicyclo[3.1.1]heptane], the half-maximal inhibitory concentration (IC50) lay in the range of 11 to 100 nM. Under `c1cc(-c2cnn3ccc(N4CCOCC4)cc23)nc(C2CCCNC2)c1` (stereo not shown) [Example 16, 4-[3-[6-(3-piperidyl)-2-pyridyl]pyrazolo[1,5-a]pyridin-5-yl]morpholine] stands 101 to 400 nM; under `CNc1ccn2ncc(-c3cc(Cl)cc(C4CCCNC4)n3)c2c1` (stereo not shown) [Example 62, 3-[4-chloro-6-(3-piperidyl)-2-pyridyl]-N-methyl-pyrazolo[1,5-a]pyridin-5-amine], 11 to 100 nM. To `C[C@@H]1CN(c2cccc(-c3cnn4ccccc34)n2)CCN1` [Example 69, (R)-3-(6-(3-methylpiperazin-1-yl)pyridin-2-yl)pyrazolo[1,5-a]pyridine formate] belongs 11 to 100 nM; to `N#Cc1ccn2ncc(-c3cccc(C4CCCNC4)n3)c2c1` (stereo not shown) [Example 17, 3-[6-(3-piperidyl)-2-pyridyl]pyrazolo[1,5-a]pyridine-5-carbonitrile], 11 to 100 nM; to `CS(=O)(=O)NCC(=O)N1CCCC(c2cccc(-c3cnn4ccccc34)n2)C1` (stereo not shown) [Example 25, N-[2-oxo-2-[3-(6-pyrazolo[1,5-a]pyridin-3-yl-2-pyridyl)-1-piperidyl]ethyl]methanesulfonamide], 101 to 400 nM. To `CC(C)Oc1ccn2ncc(-c3cccc(C4CCCNC4)n3)c2c1` (stereo not shown) [Example 13, 5-isopropoxy-3-[6-(3-piperidyl)-2-pyridyl]pyrazolo[1,5-a]pyridine] belongs 11 to 100 nM; to `O=C(Cc1cccnc1)Nc1ccn2ncc(-c3cccc(C4CCCNC4)n3)c2c1` (stereo not shown) [Example 78, N-(3-(6-(piperidin-3-yl)pyridin-2-yl)pyrazolo[1,5-a]pyridin-5-yl)-2-(pyridin-3-yl)acetamide], 11 to 100 nM; to `C[C@@H]1CN(c2ccc(F)c(-c3cnn4ccc(Cl)cc34)n2)C[C@H](C)N1` [Example 64, 5-chloro-3-[6-[(3S,5R)-3,5-dimethylpiperazin-1-yl]-3-fluoro-2-pyridyl]pyrazolo[1,5-a]pyridine], 11 to 100 nM.

`O=C(Cc1ccccn1)Nc1ccn2ncc(-c3cccc(C4CCCNC4)n3)c2c1` (stereo not shown) [Example 81, N-(3-(6-(piperidin-3-yl)pyridin-2-yl)pyrazolo[1,5-a]pyridin-5-yl)-2-(pyridin-2-yl)acetamide]: the half-maximal inhibitory concentration (IC50) lay within 11 to 100 nM. For the molecule `C[C@@H]1CN(c2cccc(-c3cnn4ccccc34)n2)C[C@H](C)N1` [Example 49, 3-[6-[(3S,5R)-3,5-dimethylpiperazin-1-yl]-2-pyridyl]pyrazolo[1,5-a]pyridine], the half-maximal inhibitory concentration (IC50) lay in the range of 11 to 100 nM.

`c1cc(-c2cnn3ccc(OCC4CC4)cc23)nc(C2CCCNC2)c1` (stereo not shown) [Example 14, 5-(cyclopropylmethoxy)-3-[6-(3-piperidyl)-2-pyridyl]pyrazolo[1,5-a]pyridine]: the IC50 is 101 to 400 nM. To `CNc1ccn2ncc(-c3cc(Cl)cc(N4CCNCC4)n3)c2c1` [Example 39, 3-(4-chloro-6-piperazin-1-yl-2-pyridyl)-N-methyl-pyrazolo[1,5-a]pyridin-5-amine] belongs 11 to 100 nM; to `C[C@@H]1CN(c2cc(Cl)cc(-c3cnn4ccc(C(F)(F)F)cc34)n2)C[C@H](C)N1` [Example 56, 3-[4-chloro-6-[(3S,5R)-3,5-dimethylpiperazin-1-yl]-2-pyridyl]-5-(trifluoromethyl)pyrazolo[1,5-a]pyridine], at most 10 nM; to `C[C@@H]1CN(c2cccc(-c3cnn4ccc(Cl)cc34)n2)C[C@H](C)N1` [Example 57, 5-chloro-3-[6-[(3R,5S)-3,5-dimethylpiperazin-1-yl]-2-pyridyl]pyrazolo[1,5-a]pyridine], at most 10 nM.

By IC50 is commonly meant the midpoint of a concentration-inhibition curve.
